How the values were obtained:
Type in all cases: in vivo
[1] = tested on: Spodoptera littoralis (Egyptian Cotton Leaf Worm); assay: Example B9: Spodoptera littoralis (Egyptian cotton leaf worm), cotton leaf discs sprayed, L1 larvae; settings: foliar, 72 h, application rate 200 ppm, 3 days after infestation
How it was run: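 Leaf discs on agar sprayed with aqueous dilutions from 10,000 ppm DMSO stock, dried, then infested with five L1 larvae. Mortality, anti-feeding and growth inhibition scored against untreated samples 3 days after infestation; control counted when any category exceeds untreated.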

[2] = tested on: Myzus persicae (Green Peach Aphid); assay: Example B7: Myzus persicae (green peach aphid), systemic activity; settings: 144 h, test rate 24 ppm, pea seedling roots in test solution, 6 days
Procedure: Example B7: Myzus persicae (Green Peach Aphid), Systemic Activity
Roots of pea seedlings infested with an aphid population of mixed ages were placed directly into aqueous test solutions prepared from 10,000 DMSO stock solutions. The samples were assessed for mortality 6 days after placing seedlings into test solutions.

[3] = tested on: Euschistus heros (Neotropical Brown Stink Bug); assay: Example B2: Euschistus heros (neotropical brown stink bug), soybean leaves sprayed, N2 nymphs; settings: 120 h, application rate 200 ppm, 5 days after infestation, read-out: effect in at least one of the two categories (mortality or growth inhibition)
How it was run: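 Soybean leaves on agar sprayed with aqueous test solutions made from 10,000 ppm DMSO stocks, dried, then infested with N2 nymphs. Mortality and growth inhibition scored versus untreated samples 5 days after infestation; activity threshold at 200 ppm.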

[4] = tested on: Myzus persicae (Green Peach Aphid); assay: Example B13: activity against Myzus persicae (green peach aphid), 96-well sucrose solution; settings: 120 h, application rate 50 ppm, 5 days after infestation
How it was run: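 Compounds, from 10,000 ppm DMSO stocks, mixed into sucrose solution in wells under stretched Parafilm, with aphids placed on the membrane in an inverted feeding setup. Mortality scored 5 days after infestation.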

[5] = tested on: Myzus persicae (Green Peach Aphid); assay: Example B8: Myzus persicae (green peach aphid), intrinsic activity; settings: 120 h, test rate 12 ppm, sucrose solution, 24-well, 5 days after infestation
How it was run: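 Compounds diluted from 10,000 ppm DMSO stock were mixed with sucrose solution under stretched Parafilm in a sachet feeding setup, with aphid-infested pea seedlings placed on the membrane. Mortality was scored 5 days after infestation.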

[6] = tested on: Plutella xylostella (Diamondback Moth); assay: Example B14: activity against Plutella xylostella (diamondback moth), 96-well artificial diet; settings: 216 h, application rate 500 ppm, 9 days after infestation
How it was run: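 Diet in 96-well plates was treated with aqueous dilutions of 10,000 ppm DMSO stocks, dried, and infested with 30 eggs per well via a netted lid; hatching L1 larvae fed on the diet. Mortality scored 9 days after infestation.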

[7] = tested on: Diabrotica Balteata (Corn Root Worm); assay: Example B1: Diabrotica balteata (corn root worm), maize sprouts sprayed, L2 larvae; settings: 96 h, application rate 200 ppm, 4 days after infestation, read-out: effect in at least one of the two categories (mortality or growth inhibition)
How it was run: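 Maize sprouts on agar sprayed with aqueous dilutions of 10,000 ppm DMSO stocks, dried, then infested with 6–10 L2 larvae per well. Mortality and growth inhibition scored against untreated samples 4 days after infestation; rates of 200 ppm.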

[8] = tested on: Thrips tabaci (Onion Thrips); assay: Example B12: Thrips tabaci (onion thrips), feeding/contact activity; settings: 144 h, application rate 200 ppm, mixed ages, 6 days after infestation
Procedure: Example B12: Thrips tabaci (Onion Thrips) Feeding/Contact Activity
Sunflower leaf discs were placed on agar in 24-well microtiter plates and sprayed with aqueous test solutions prepared from 10,000 ppm DMSO stock solutions. After drying the leaf discs were infested with a thrips population of mixed ages. The samples were assessed for mortality 6 days after infestation.

[9] = tested on: Plutella xylostella (Diamond Back Moth); assay: Example B5: Plutella xylostella (diamond back moth), artificial diet, 24-well, eggs; settings: 192 h, application rate 200 ppm, 8 days after infestation, read-out: effect in at least one of the two categories (mortality or growth inhibition)
How it was run: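 Artificial diet in 24-well plates treated with aqueous dilutions of 10,000 ppm DMSO stocks, dried, then infested with Plutella eggs. Mortality and growth inhibition scored against untreated samples 8 days after infestation; activity rated at 200 ppm application rate.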

[10] = tested on: Spodoptera littoralis (Egyptian Cotton Leaf Worm); assay: Example B10: Spodoptera littoralis (Egyptian cotton leaf worm), uptake by lettuce roots from agar, eggs; settings: 144 h, test rate 12.5 ppm, lettuce root uptake, 6 days after infestation, read-out: effect in at least one of the three categories (mortality, anti-feeding, or growth inhibition)
From the text: Example B10: Spodoptera littoralis (Egyptian Cotton Leaf Worm)
Test compounds were applied by pipette from 10,000 ppm DMSO stock solutions into 24-well plates and mixed with agar. Lettuce seeds were placed onto the agar and the multi well plate was closed by another plate which contained also agar. After 7 days the compound was absorbed by the roots and the lettuce grew into the lid plate. The lettuce leaves were then cut off into the lid plate. Spodoptera eggs were pipetted through a plastic stencil onto a humid gel blotting paper and the lid plate was closed with it. The samples were assessed for mortality, anti-feedant effect and growth inhibition in comparison to untreated samples 6 days after infestation.
The following compounds gave an effect of at least 80% in at least one of the three categories (mortality, anti-feeding, or growth inhibition) at a test rate of 12.5 ppm: […]

[11] = tested on: Chilo suppressalis (Striped Rice Stemborer); assay: Example B4: Chilo suppressalis (striped rice stemborer), artificial diet, L2 larvae; settings: 144 h, application rate 200 ppm, 6 days after infestation
How it was run: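 L2 larvae (6-8 per well) placed on artificial diet treated with aqueous test solutions prepared from 10,000 ppm DMSO stocks, after drying. Mortality, anti-feeding and growth inhibition scored against untreated samples 6 days after infestation; control means at least one category exceeds untreated.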

[12] = tested on: Myzus persicae (Green Peach Aphid); assay: Example B6: Myzus persicae (green peach aphid), feeding/contact activity; settings: 144 h, application rate 200 ppm, 6 days after infestation
Procedure: Example B6: Myzus persicae (Green Peach Aphid):Feeding/Contact Activity
Sunflower leaf discs were placed onto agar in a 24-well microtiter plate and sprayed with aqueous test solutions prepared from 10,000 ppm DMSO stock solutions. After drying, the leaf discs were infested with an aphid population of mixed ages. The samples were assessed for mortality 6 days after infestation.

CC(c1ncnn1-c1ncccn1)N(CC1CC1)C(=O)c1cc(C(F)(F)F)cc(C(C)(C)C#N)c1 (stereo not drawn) [P35, 3-(1-cyano-1-methyl-ethyl)-N-(cyclopropylmethyl)-N-[1-(2-pyrimidin-2-yl-1,2,4-triazol-3-yl)ethyl]-5-(trifluoromethyl)benzamide]
≥ 80%: percent control (mortality, anti-feedant effect or growth inhibition) at 200 ppm [1] | mortality at 24 ppm [2] | percent effect (mortality or growth inhibition) at 200 ppm [3] | mortality at 50 ppm [4] | mortality at 12 ppm [5] | mortality at 500 ppm [6] | percent effect (mortality or growth inhibition) at 200 ppm [7] | mortality at 200 ppm [8] | percent effect (mortality or growth inhibition) at 200 ppm [9]

CC(c1ncnn1-c1ncccn1)N(CC1CC1)C(=O)c1cc(C2CC2C(F)(F)F)cc(C(F)(F)F)c1 (stereo not drawn) [P42, N-(cyclopropylmethyl)-N-[1-(2-pyrimidin-2-yl-1,2,4-triazol-3-yl)ethyl]-3-(trifluoromethyl)-5-[2-(trifluoromethyl)cyclopropyl]benzamide]
≥ 80%: percent control (mortality, anti-feedant effect or growth inhibition) at 200 ppm [1] | percent effect (mortality or growth inhibition) at 200 ppm [3] | mortality at 50 ppm [4] | percent effect (mortality, anti-feeding or growth inhibition) at 12.5 ppm [10] | mortality at 12 ppm [5] | mortality at 500 ppm [6] | percent effect (mortality or growth inhibition) at 200 ppm [7] | percent control (mortality, anti-feedant effect or growth inhibition) at 200 ppm [11] | mortality at 200 ppm [8] | percent effect (mortality or growth inhibition) at 200 ppm [9] | mortality at 200 ppm [12]

CC(c1ncnn1-c1ncccn1)N(CC1CC1)C(=O)c1cc(C(F)(F)F)cc(C2(C#N)CC2)c1 (stereo not drawn) [P46, 3-(1-cyanocyclopropyl)-N-(cyclopropylmethyl)-N-[1-(2-pyrimidin-2-yl-1,2,4-triazol-3-yl)ethyl]-5-(trifluoromethyl)benzamide]
≥ 80%: percent control (mortality, anti-feedant effect or growth inhibition) at 200 ppm [1] | mortality at 24 ppm [2] | percent effect (mortality or growth inhibition) at 200 ppm [3] | mortality at 50 ppm [4] | mortality at 12 ppm [5] | mortality at 500 ppm [6] | percent effect (mortality or growth inhibition) at 200 ppm [7] | mortality at 200 ppm [8] | percent effect (mortality or growth inhibition) at 200 ppm [9] | mortality at 200 ppm [12]

Cc1nc(C(C)NC(=O)c2cc(C(F)(F)F)cc(C(C)(C)C#N)c2)n(-c2ncccn2)n1 (stereo not drawn) [P82, 3-(1-cyano-1-methyl-ethyl)-N-[1-(5-methyl-2-pyrimidin-2-yl-1,2,4-triazol-3-yl)ethyl]-5-(trifluoromethyl)benzamide]
≥ 80%: percent control (mortality, anti-feedant effect or growth inhibition) at 200 ppm [1] | mortality at 24 ppm [2] | percent effect (mortality or growth inhibition) at 200 ppm [3] | mortality at 12 ppm [5] | percent effect (mortality or growth inhibition) at 200 ppm [7] | percent control (mortality, anti-feedant effect or growth inhibition) at 200 ppm [11] | percent effect (mortality or growth inhibition) at 200 ppm [9] | mortality at 200 ppm [12]

CC(NC(=O)c1cc(C(F)(F)F)cc(C(C)(C)C#N)c1)c1ncnn1-c1ncccn1 (stereo not drawn) [P84, 3-(1-cyano-1-methyl-ethyl)-N-[1-(2-pyrimidin-2-yl-1,2,4-triazol-3-yl)ethyl]-5-(trifluoromethyl)benzamide]
≥ 80%: percent control (mortality, anti-feedant effect or growth inhibition) at 200 ppm [1] | mortality at 24 ppm [2] | percent effect (mortality or growth inhibition) at 200 ppm [3] | mortality at 12 ppm [5] | percent effect (mortality or growth inhibition) at 200 ppm [7] | percent control (mortality, anti-feedant effect or growth inhibition) at 200 ppm [11] | percent effect (mortality or growth inhibition) at 200 ppm [9]
